Measured values reported in patent publication US20110098309A1, “METHODS OF INHIBITING THE FORMATION OF AMYLOID-BETA DIFFUSABLE LIGANDS USING ACYLHYDRAZIDE COMPOUNDS” (priority 2007, published 2011).
pIC50: −log10 of the molar value.

Biological target: Aβ1-42 (Homo sapiens, UniProt P05067)
Assay: FRET assay of Aβ1-42 oligomer (ADDL) assembly inhibition
Format: biochemical
Details: 0.2 μM FITC-Aβ(1-42) and 0.8 μM Aβ(1-42), 37° C., six concentrations from about 10 μM to about 0.03 μM
From the text: Fluorescence (or Förster) Resonance Energy Transfer (FRET) is a distance-dependent, non-radiative transfer of energy in which the de-excitation of one fluorophore (donor) is coupled to excitation of another fluorophore (acceptor). FRET occurs if (1) the quantum of energy emitted by a donor fluorophore corresponds to an acceptor fluorophore's excitation energy, (2) the orientations of donor and acceptor transition dipoles are nearly parallel and (3) the donor fluorescent emission spectrum overlaps the acceptor absorption spectrum.
In this assay, assembly of Aβ1-42 oligomer formation is monitored by FRET using N-terminal conjugates of fluorescein-Aβ1-42 as both the donor and acceptor fluorophore (fluorescein-fluorescein Ro˜45 Å). […] Inhibition of Aβ1-42 assembly is observed as the absence or attenuation of fluorescein quenching.
FRET and FP assays are performed in 384-well Corning Non-Binding Surface, black, opaque microtiter plates, and the assay buffer consists of 25 mM MOPS-Tris (pH 8.0) with 100 mM MgCl2. The assay volume, containing 0.2 μM FITC-Aβ(1-42) and 0.8 μM Aβ(1-42), is 50 μl and the temperature is 37° C. […] Kinetic traces are collected by recording fluorescence intensity and polarization readings every five minutes over about a three hour time course. […] Positive control reactions contain all buffer components in the absence of added small molecule or antibody reagents. To test for ADDL assembly inhibition, the compound was incubated with the peptide mixture at six concentrations from about 10 μM decreasing to about 0.03 μM.

Sequence of Aβ1-42 (P05067 672-713 limits assumed): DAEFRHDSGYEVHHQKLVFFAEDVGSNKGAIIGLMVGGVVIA

Structure (SMILES) | pIC50
C/C(CC(N)=O)=N\NC(=O)c1ccccc1O [Compound 32, 3-(2-(2-hydroxybenzoyl)hydrazono)butanamide] | 4.46
COc1cc(Cl)cc(/C=N/NC(=O)c2ccccc2O)c1O [Compound 91, N′-(5-chloro-2-hydroxy-3-methoxy-benzylidene)-2-hydroxy-benzohydrazide] | 4.64
CC(C)(C)c1ccc(O)c(/C=N/NC(=O)c2ccccc2O)c1 [Compound 47, N′-(5-tert-butyl-2-hydroxybenzylidene)-2-hydroxy-benzohydrazide] | 5.46
COc1cccc(/C=N/NC(=O)c2ccccc2O)c1O [Compound 94, 2-hydroxy-N′-(2-hydroxy-3-methoxybenzylidene)benzohydrazide] | 4.60
O=C(N/N=C/c1cc(Cl)cc(Cl)c1O)c1ccccc1O [Compound 69, N′-(3,5-dichloro-2-hydroxy-benzylidene)-2-hydroxy-benzohydrazide] | 5.04
COc1ccc(O)c(/C=N/NC(=O)c2c(O)ccc3ccccc23)c1 [Compound 66, 2-hydroxy-N′-(2-hydroxy-5-methoxy-benzylidene)-1-naphtho-hydrazide] | 5.11
COc1ccc(O)c(/C=N/NC(=O)c2cccc3c2NC(=O)C3)c1 [Compound 52, N′-(2-hydroxy-5-methoxy-benzylidene)-2-oxoindoline-7-carbohydrazide] | 5.38
O=C(N/N=C/c1cc(Cl)ccc1O)c1ccccc1O [Compound 59, N′-(5-chloro-2-hydroxy-benzylidene)-2-hydroxy-benzohydrazide] | 5.19
Cc1ccc(C(=O)C/C(=N/NC(=O)c2ccccc2O)C(F)(F)F)s1 [Compound 13, 2-hydroxy-N′-(1,1,1-trifluoro-4-(5-methylthiophen-2-yl)-4-oxobutan-2-ylidene) benzohydrazide] | 5.04
O=C(N/N=C/c1ccc(N2CCOCC2)cc1O)c1ccccc1O [Compound 87, 2-hydroxy-N′-(2-hydroxy-4-morpholino-benzylidene)-benzohydrazide] | 4.74
Cc1ccc(C(=O)N/N=C(/CC(=O)c2cccs2)C(F)(F)F)cc1 [Compound 33, 4-methyl-N′-(1,1,1-trifluoro-4-oxo-4-(thiophen-2-yl)butan-2-ylidene)benzohydrazide] | 4.39
O=C(N/N=C/c1cc(F)cc(Cl)c1O)c1ccccc1O [Compound 40, N′-(3-chloro-5-fluoro-2-hydroxybenzylidene)-2-hydroxy-benzohydrazide] | 5.68
O=C(C/C(=N/NC(=O)c1ccccc1O)C(F)(F)F)c1cc2ccccc2s1 [Compound 8, N′-(4-(benzo[b]thiophen-2-yl)-1,1,1-trifluoro-4-oxobutan-2-ylidene)-2-hydroxy benzohydrazide] | 5.11
CN1CCN(C(=O)C/C(=N/NC(=O)c2ccccc2O)C(F)(F)F)CC1 [Compound 6, 2-hydroxy-N′-(1,1,1-trifluoro-4-(4-methylpiperazin-1-yl)-4-oxobutan-2-ylidene) benzohydrazide] | 5.15
COc1ccc(O)c(/C=N/NC(=O)c2cc(Br)ccc2O)c1 [Compound 98, 5-bromo-2-hydroxy-N′-(2-hydroxy-5-methoxybenzylidene)benzohydrazide] | 4.50
O=C(C/C(=N/NC(=O)c1cc(Cl)ccc1O)C(F)(F)F)c1cccs1 [Compound 20, 5-chloro-2-hydroxy-N′-(1,1,1-trifluoro-4-oxo-4-(thiophen-2-yl)butan-2-ylidene)benzohydrazide] | 4.92
COc1ccc(O)c(/C=N/NC(=O)c2cccc3cccc(O)c23)c1 [Compound 105, 8-hydroxy-N′-(2-hydroxy-5-methoxybenzylidene)-1-naphthohydrazide] | 4.44

Structure (SMILES) | pIC50
NC(=O)c1ccccc1/C=N/NC(=O)c1ccccc1O [Compound 64, 2-((2-(2-hydroxybenzoyl)hydrazono)methyl)benzamide] | 5.15
O=C(N/N=C/c1cc(Br)cc(I)c1O)c1cccc(F)c1 [Compound 39, N′-(5-bromo-2-hydroxy-3-iodobenzylidene)-3-fluoro-benzohydrazide] | 5.80
O=C(N/N=C/c1ccc(O)cc1O)c1ccccc1NS(=O)(=O)c1ccc(Cl)cc1 [Compound 62, 4-chloro-N-(2-(2-(2,4-dihydroxy-benzylidene)hydrazine-carbonyl)phenyl)benzene-sulfonamide] | 5.17
O=C(N/N=C(/c1cc(Cl)ccc1O)C(F)(F)F)c1ccccc1O [Compound 102, N′-(1-(5-chloro-2-hydroxyphenyl)-2,2,2-trifluoroethylidene)-2-hydroxybenzohydrazide] | 4.47
O=C(N/N=C/c1oc2ccc([N+](=O)[O-])cc2c1O)c1ccccc1O [Compound 88, 2-hydroxy-N′-((3-hydroxy-5-nitro-benzofuran-2-yl)methylene) benzohydrazide] | 4.69
COc1ccc(O)c(/C=N/NC(=O)c2ccc(Cl)cc2O)c1 [Compound 51, 4-chloro-2-hydroxy-N′-(2-hydroxy-5-methoxy-benzylidene)benzohydrazide] | 5.38
O=C(N/N=C(/CC(=O)c1cccs1)C(F)(F)F)c1ccc(Br)cc1 [Compound 27, 4-bromo-N′-(1,1,1-trifluoro-4-oxo-4-(thiophen-2-yl)butan-2-ylidene)benzohydrazide] | 4.73
COc1ccc(O)c(/C=N/NC(=O)c2cc([N+](=O)[O-])ccc2O)c1 [Compound 104, 2-hydroxy-N′-(2-hydroxy-5-methoxybenzylidene)-5-nitrobenzohydrazide] | 4.45
O=C(C/C(=N/NC(=O)c1sc2cc(F)ccc2c1Cl)C(F)(F)F)c1ccc(Cl)s1 [Compound 23, 3-chloro-N′-(4-(5-chlorothiophen-2-yl)-1,1,1-trifluoro-4-oxobulan-2-ylidene)-6-fluorobenzo[b]thiophene-2-carbohydrazide] | 4.80
COc1ccc(O)c(/C=N/NC(=O)c2ccc(-n3c(C)ccc3C)cc2)c1 [Compound 56, 4-(2,5-dimethyl-1H-pyrrol-1-yl)-N′-(2-hydroxy-5-methoxy-benzylidene) benzohydrazide] | 5.21
COc1ccc(O)c(/C=N/NC(=O)c2cc(C)ccc2O)c1 [Compound 73, 2-hydroxy-N′-(2-hydroxy-5-methoxy-benzylidene)-5-methyl-benzohydrazide] | 4.98
O=C(C/C(=N/NC(=O)c1[nH]c2ccccc2c1Cl)C(F)(F)F)c1cccs1 [Compound 30, 3-chloro-N′-(1,1,1-trifluoro-4-oxo-4-(thiophen-2-yl)butan-2-ylidene)-1H-indole-2-carbohydrazide] | 4.55
C/C(=N\NC(=O)c1ccccc1O)c1ccc(C)cc1 [Compound 79, 2-hydroxy-N′-(1-p-tolylethylidene) benzohydrazide] | 4.88
COc1ccc(O)c(/C=N/NC(=O)c2ccccc2NS(=O)(=O)c2ccc(Cl)cc2)c1 [Compound 71, 4-chloro-N-(2-(2-(2-hydroxy-5-methoxy-benzylidene)hydrazine-carbonyl)phenyl)benzene-sulfonamide] | 5.01
COc1ccc(C(=O)N/N=C/c2cc(OC)ccc2O)c(O)c1 [Compound 76, 2-hydroxy-N′-(2-hydroxy-5-methoxy-benzylidene)-4-methoxy-benzohydrazide] | 4.95
COc1ccc(O)c(/C=N/NC(=O)c2cccc(C)c2O)c1 [Compound 63, 2-hydroxy-N′-(2-hydroxy-5-methoxy-benzylidene)-3-methyl-benzohydrazide] | 5.15
